Columns and labels:
CDK2 = molecular target: T1, CDK2 (Homo sapiens, UniProt P24941); assay: CDK protein degradation activity (Western blotting), CDK2; format: cell-based; details: MDA-MB-231 cells, 16 hours, Western blot
T1 construct: endogenous in cells; host or cells: MDA-MB-231
Summary of the method: (§1)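 Seed MDA-MB-231 cells; next day add compound to 100 nM, 1 μM or 10 μM final, or DMSO. After 16 h, harvest and lyse in Triton X-100 buffer, run SDS-PAGE, probe for CDK2, CDK9 and tubulin.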

CDK9 = molecular target: T2, CDK9 (Homo sapiens, UniProt P50750); assay: CDK protein degradation activity (Western blotting), CDK9; format: cell-based; details: MDA-MB-231 cells, 16 hours, Western blot
T2 construct: endogenous in cells; host or cells: MDA-MB-231
T2 sequence (P50750 whole entry): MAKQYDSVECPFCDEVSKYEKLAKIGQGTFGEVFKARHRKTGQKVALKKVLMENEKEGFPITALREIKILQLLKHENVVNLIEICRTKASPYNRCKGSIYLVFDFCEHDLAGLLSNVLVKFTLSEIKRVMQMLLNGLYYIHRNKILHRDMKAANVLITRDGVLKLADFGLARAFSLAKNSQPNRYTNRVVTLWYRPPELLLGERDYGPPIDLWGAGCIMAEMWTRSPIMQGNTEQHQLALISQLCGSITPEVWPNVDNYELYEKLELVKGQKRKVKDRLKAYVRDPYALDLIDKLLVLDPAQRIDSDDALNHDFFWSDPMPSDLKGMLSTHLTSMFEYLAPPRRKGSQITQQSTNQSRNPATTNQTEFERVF
Summary of the method: as §1

Compound	Enzyme degradation CDK2 (% remaining) @ 0.1 μM (CDK2)	Enzyme degradation CDK2 (% remaining) @ 1 μM (CDK2)	Enzyme degradation CDK2 (% remaining) @ 10 μM (CDK2)	Enzyme degradation CDK9 (% remaining) @ 0.1 μM (CDK9)	Enzyme degradation CDK9 (% remaining) @ 1 μM (CDK9)	Enzyme degradation CDK9 (% remaining) @ 10 μM (CDK9)
Cc1cccc(C(=O)NC2CC(n3cnc4c(Nc5ccc(N6CCN(C7CC8(CCN(C(=O)C9CCN(c%10ccc%11c(c%10)C(=O)N([C@H]%10CCC(=O)NC%10=O)C%11=O)CC9)CC8)C7)CC6)cc5)ncnc43)C2)n1 (stereo partly drawn) [Compound 403, N-((1s,3s)-3-(6-((4-(4-(7-(1-(2-(2,6-dioxopiperidin-3-yl)-1,3-dioxoisoindolin-5-yl)piperidin-4-carbonyl)-7-azaspiro[3.5]nonan-2-yl)piperazin-1-yl)phenyl)amino)-9H-purin-9-yl)cyclobutyl)-6-methylpicolinamide]	60%	60%	90%	0/0/0%	0/0/0%	0/0/0%
O=C1CC[C@H](N2C(=O)c3ccc(N4CCC(CCN5CCN(c6ccc(Nc7ncnc8c7ncn8[C@H]7C[C@@H](NC(=O)c8c(Cl)cccc8Cl)C7)cc6)CC5)CC4)cc3C2=O)C(=O)N1 [Compound 405, 2,6-dichloro-N-((1s,3s)-3-(6-((4-(4-(2-(1-(2-(2,6-dioxopiperidin-3-yl)-1,3-dioxoisoindolin-5-yl)piperidin-4-yl)ethyl)piperazin-1-yl)phenyl)amino)-9H-purin-9-yl)cyclobutyl)benzamide]	50/50/50%	50/50/50%	50/50/50%	0/0/0%	0/0/0%	0/0/0%
O=C1CC[C@H](N2C(=O)c3cc(F)c(N4CCC(CCN5CCN(c6ccc(Nc7ncnc8c7ncn8C7CC(NC(=O)c8c(Cl)cccc8Cl)C7)cc6)CC5)CC4)cc3C2=O)C(=O)N1 (stereo partly drawn) [Compound 406, 2,6-dichloro-N-((1s,3s)-3-(6-((4-(4-(2-(1-(2-(2,6-dioxopiperidin-3-yl)-6-fluoro-1,3-dioxoisoindolin-5-yl)piperidin-4-yl)ethyl)piperazin-1-yl)phenyl)amino)-9H-purin-9-yl)cyclobutyl)benzamide]	30/30/30%	30/30/30%	30/30/30%	0/0/0%	0/0/0%	0/0/0%
O=C1CCC(n2nnc3ccc(N4CCC(CCN5CCN(c6ccc(Nc7ncnc8c7ncn8[C@H]7C[C@@H](NC(=O)c8c(Cl)cccc8Cl)C7)cc6)CC5)CC4)cc3c2=O)C(=O)N1 (stereo partly drawn) [Compound 407, 2,6-dichloro-N-((1s,3s)-3-(6-((4-(4-(2-(1-(3-(2,6-dioxopiperidin-3-yl)-4-oxo-3,4-dihydrobenzo[d][1,2,3]triazin-6-yl)piperidin-4-yl)ethyl)piperazin-1-yl)phenyl)amino)-9H-purin-9-yl)cyclobutyl)benzamide]	60/60/60%	60/60/60%	60/60/60%	0/0/0%	0/0/0%	0/0/0%
O=C1CC[C@H](N2C(=O)c3ccc(CCCCN4CCC(N5CCN(c6ccc(Nc7ncnc8c7ncn8C7CC(NC(=O)Cc8ccccc8)C7)cc6)CC5)CC4)cc3C2=O)C(=O)N1 (stereo partly drawn) [Compound 408, N-((1s,3s)-3-(6-((4-(4-(1-(4-(2-(2,6-dioxopiperidin-3-yl)-1,3-dioxoisoindolin-5-yl)butyl)piperidin-4-yl)piperazin-1-yl)phenyl)amino)-9H-purin-9-yl)cyclobutyl)-2-phenylacetamide]	40%	30%	30%	20%	10%	10%
O=C1CCC(N2C(=O)c3cc(F)c(N4CCC(CN5CCC(CCNc6ncnc7c6ncn7[C@H]6C[C@@H](NC(=O)Cc7ccccc7)C6)CC5)CC4)cc3C2=O)C(=O)N1 (stereo partly drawn) [Compound 409, N-((1s,3s)-3-(6-((2-(1-((1-(2-(2,6-dioxopiperidin-3-yl)-6-fluoro-1,3-dioxoisoindolin-5-yl)piperidin-4-yl)methyl)piperidin-4-yl)ethyl)amino)-9H-purin-9-yl)cyclobutyl)-2-phenylacetamide]	70%	40%	40%	70%	50%	10%
O=C1CC[C@H](n2nnc3ccc(N4CCC(CN5CCC(CCNc6ncnc7c6ncn7C6CC(NC(=O)Cc7ccccc7)C6)CC5)CC4)cc3c2=O)C(=O)N1 (stereo partly drawn) [Compound 410, N-((1s,3s)-3-(6-((2-(1-((1-(3-(2,6-dioxopiperidin-3-yl)-4-oxo-3,4-dihydrobenzo[d][1,2,3]triazin-6-yl)piperidin-4-yl)methyl)piperidin-4-yl)ethyl)amino)-9H-purin-9-yl)cyclobutyl)-2-phenylacetamide]	30%	20%	20%	30%	20%	20%
O=C1CC[C@H](N2C(=O)c3ccc(N4CC(C(=O)N5CCC(CN6CCC(CCNc7ncnc8c7ncn8[C@H]7C[C@@H](NC(=O)Cc8ccccc8)C7)CC6)CC5)C4)cc3C2=O)C(=O)N1 [Compound 411, N-((1s,3s)-3-(6-((2-(1-((1-(1-(2-(2,6-dioxopiperidin-3-yl)-1,3-dioxoisoindolin-5-yl)azetidin-3-carbonyl)piperidin-4-yl)methyl)piperidin-4-yl)ethyl)amino)-9H-purin-9-yl)cyclobutyl)-2-phenylacetamide]	40/40/40%	40/40/40%	40/40/40%	10/10/10%	10/10/10%	10/10/10%
O=C1CC[C@H](N2C(=O)c3ccc(N4CC(C(=O)N5CCC(CCN6CCN(c7ccc(Nc8ncnc9c8ncn9C8CC(NC(=O)c9c(Cl)cccc9Cl)C8)cc7)CC6)CC5)C4)cc3C2=O)C(=O)N1 (stereo partly drawn) [Compound 412, 2,6-dichloro-N-((1s,3s)-3-(6-((4-(4-(2-(1-(1-(2-(2,6-dioxopiperidin-3-yl)-1,3-dioxoisoindolin-5-yl)azetidin-3-carbonyl)piperidin-4-yl)ethyl)piperazin-1-yl)phenyl)amino)-9H-purin-9-yl)cyclobutyl)benzamide]	30/30/30%	30/30/30%	30/30/30%	10/10/10%	10/10/10%	10/10/10%
O=C1CC[C@H](N2C(=O)c3ccc(N4CCC(C(=O)N5CCC(CCN6CCN(c7ccc(Nc8ncnc9c8ncn9C8CC(NC(=O)c9c(Cl)cccc9Cl)C8)cc7)CC6)CC5)CC4)cc3C2=O)C(=O)N1 (stereo partly drawn) [Compound 413, 2,6-dichloro-N-((1s,3s)-3-(6-((4-(4-(2-(1-(1-(2-(2,6-dioxopiperidin-3-yl)-1,3-dioxoisoindolin-5-yl)piperidin-4-carbonyl)piperidin-4-yl)ethyl)piperazin-1-yl)phenyl)amino)-9H-purin-9-yl)cyclobutyl)benzamide]	30%	20%	20%	10/10/10%	10/10/10%	10/10/10%
N#Cc1cccc(C(=O)N[C@H]2C[C@@H](n3cnc4c(Nc5ccc(N6CCN(CC7CCN(c8cc9c(cc8F)C(=O)N(C8CCC(=O)NC8=O)C9=O)CC7)CC6)cc5)ncnc43)C2)n1 (stereo partly drawn) [Compound 414, 6-cyano-N-((1s,3s)-3-(6-((4-(4-((1-(2-(2,6-dioxopiperidin-3-yl)-6-fluoro-1,3-dioxoisoindolin-5-yl)piperidin-4-yl)methyl)piperazin-1-yl)phenyl)amino)-9H-purin-9-yl)cyclobutyl)picolinamide]	20/20/20%	20/20/20%	20/20/20%	10/10/10%	10/10/10%	10/10/10%
O=C1CC[C@H](N2C(=O)c3cc(F)c(N4CCC(CN5CCN(c6ccc(Nc7ncnc8c7ncn8C7CC(NC(=O)c8cccc(C(F)(F)F)n8)C7)cc6)CC5)CC4)cc3C2=O)C(=O)N1 (stereo partly drawn) [Compound 415, N-((1s,3s)-3-(6-((4-(4-((1-(2-(2,6-dioxopiperidin-3-yl)-6-fluoro-1,3-dioxoisoindolin-5-yl)piperidin-4-yl)methyl)piperazin-1-yl)phenyl)amino)-9H-purin-9-yl)cyclobutyl)-6-(trifluoromethyl)picolinamide]	20/20/20%	20/20/20%	20/20/20%	10/10/10%	10/10/10%	10/10/10%

Reference: patent US20260125382A1, “COMPOUNDS FOR INHIBITING OR DEGRADING CDK2 AND/OR CDK9 AND MEDICINAL USE THEREOF” (KOREA RESEARCH INSTITUTE OF CHEMICAL TECHNOLOGY, priority 2022, published 2026)
